Converted amounts (≈) assume the structure as drawn. Where two headings read alike, the source gives them in different places. Ends that are not written are not given here.
How the values were obtained:
[1] = test system: E. coli BL21 (ripl); experiment: Overexpression of APIM peptides in E. coli, growth; assay type: cell-based; conditions: induction with 1 mM IPTG, no cell-penetrating peptide; FIG. 9, 10
Source text: In order to verify further that the anti-microbial effect of the APIM peptides arise from the APIM sequence, peptides containing only the APIM sequence (i.e. without a cell-penetrating peptide) were over-expressed in E. coli using the expression vector pET28. The APIM peptide was expressed alone or as part of a fusion protein with EYFP. Expression of EYFP alone was used as a control.
The expression vectors containing the respective peptides were transfected into the bacterial strain E. coli BL21 (ripl). Single colonies, 4-6 of each strain, were inoculated in […] LB media (+Km/Clm) in 96 wells plates, and incubated at 37° C. Overnight cultures were diluted 1:100 and grown for 1 h before induction with 1 mM IPTG (initiating peptide expression). OD was measured every hour.
In order to verify that the extended APIM peptides have an anti-bacterial effect, peptides containing only the “extended” APIM sequence (i.e. without a cell-penetrating peptide) were over-expressed in E. coli using the expression vector pET28, using the method described in Example 7. […] The bacterial strain without a plasmid was used as a further control.

[2] = test system: A. baumanii; assay type: cell-based
Method: (§1) ATX-101 was dissolved in Mueller-Hinton broth to 1.25 times of the desired assay concentration. Antibiotics were dissolved in Mueller-Hinton broth and Mueller-Hinton broth with ATX-101 at a concentration of 1.25 times the highest desired assay concentrations. Antibiotics were pharmaceutical grade purchased from Sigma-Aldrich.
(§2) Two-fold serial dilutions of antibiotics were made in Mueller-Hinton with different concentrations of ATX-101, and the solutions were placed in four parallel wells is Nunc 384-well micro plates (30 μl per well in Nunc 242757 microplates). A group of 8 wells with no addition of antibiotics for each ATX-101 concentration was included on each micro plate as a growth reference.
(§3) At the day of analysis, overnight TSB cultures inoculated from freeze stocks (6 ml in 50 ml tube tilted to 45-degrees angle, 200 rpm, 2.5 cm amplitude, 37° C.) were diluted in TSB until the OD800 was 0.10, and further diluted 1:40 in Mueller-Hinton broth. Each well in the 384-well assay plates was inoculated with 7.5 μl of the diluted culture, giving the same dilution of the culture in the assay cultures. The microplates were placed in plastic bags and incubated without shaking at 37° C. The optical density at 600 nm in the microwells was measured after approximately 19 hours of incubation, and the relative growth yield was calculated based on the growth in the reference groups. The MIC value was set to the highest concentration giving less than 30% growth in all 4 parallel wells within the sample groups. The microplates were further incubated for 6 hours, and optical density in the cultures was measured once more for confirmation of the estimated MIC-values.
(§4) The MICS for various APIM peptides were determined for various bacteria, as described above.

[3] = test system: E. faecium TO-12; assay type: cell-based
Method: as §1, §2, §3, §4

[4] = test system: Staphylococcus aureus NCTC 6571; assay type: cell-based; conditions: for MIC: NCTC 6571
Method: as §1, §2, §3, §4

[5] = test system: Staphylococcus aureus MRSA 1040s; experiment: microbe, parasite or virus in culture; assay type: cell-based
Method: as §1, §2, §3
as §1, with “The APIM peptide was” for “ATX-101 was”, “with APIM” for “with ATX-101”
as §2, with “APIM,” for “ATX-101,”, “in” for “is”, “APIM” for “ATX-101”, “as” for “as a”
as §3, with “inoculated” for “inoculated from”, “OD600” for “OD800”, “culture.” for “culture, giving the same dilution of the culture in the assay cultures.”, “yield in each well” for “yield”
In view of the anti-bacterial effect of ATX-101 on strains of MRSA, the MIC for a variety of APIM variants was determined using Staphylococcus aureus MRSA 1040s. […] A cell penetrating peptide (SEQ ID NO: 337) present in all of the APIM peptides, was used as a negative control.
Next, the effect of APIM peptides on the MIC of antibiotics was determined using Staphylococcus aureus MRSA 1040s.
as §4

[6] = test system: E. faecium CCUG 37832 (TO-3); assay type: cell-based, Enterococcus faecium
Method: as §1, §2, §3
Accordingly, concentrations of 8 μg/ml and 16 μg/ml of ATX-101 were combined with various antibiotics selected from; 2,4-Diamin, S. methizol, S. methoxa, S. dimetho, Surfaceta, Trimeth, Flumeq, Levoflox, Pruliflox, Metronid and Nitrofur.
as §4

[7] = target: β-clamp protein from E. coli (Escherichia coli, UniProt P0A988); experiment: Microscale thermophoresis (MST); assay type: binding; conditions: no data could be obtained
Sequence of β-clamp protein from E. coli (P0A988 whole entry): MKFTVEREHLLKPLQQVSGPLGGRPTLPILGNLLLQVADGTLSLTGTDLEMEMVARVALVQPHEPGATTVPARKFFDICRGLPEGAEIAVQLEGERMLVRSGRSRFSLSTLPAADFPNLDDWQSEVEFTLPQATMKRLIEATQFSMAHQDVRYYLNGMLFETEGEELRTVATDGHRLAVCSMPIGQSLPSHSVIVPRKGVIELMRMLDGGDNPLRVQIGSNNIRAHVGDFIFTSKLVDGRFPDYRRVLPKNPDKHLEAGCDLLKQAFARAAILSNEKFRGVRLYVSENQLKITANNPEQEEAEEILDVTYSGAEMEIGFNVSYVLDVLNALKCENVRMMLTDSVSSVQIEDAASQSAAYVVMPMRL
Method: Microscale thermophoresis (MST) was used to determine the dissociation constant for various APIM containing peptides.
The β-clamp protein from E. coli was labeled with a fluorescent molecule. Concentration of PCNA was kept constant, whereas dilutions of each APIM containing peptide were prepared (1:1). In a mix of protein and peptide, the signal was recorded in all capillaries with varying concentrations of the unlabeled peptide, and any change of thermophoretic properties was observed as a change in fluorescence intensity.

[8] = test system: bacteria; experiment: MIC of other APIM peptides on bacteria; assay type: cell-based; conditions: Example 2
[9] = test system: gram negative bacteria (Pseudomonas aeruginosa ATCC 15692, Acinetobacter baumenni ATCC 19606, Escherichia coli ATCC 25922, Pseudomonas aeruginosa TO-5A); assay type: cell-based
Method: (§5) The minimum inhibitory concentration (MIC) of ATX-101 (SEQ ID NO: 1289) was determined for various gram negative and gram positive bacteria. The bacteria, Pseudomonas aeruginosa ATCC 15692, Acinetobacter baumenni ATCC 19600, Escherichia coli ATCC 25922, Pseudomonas aeruginosa TO-5A (clinical isolate), Enterococous faecium CCUG 37832, Enterococcus faecium CTC 492, Micrococcus luteus ATCC 9341 and Escherichie coli NCIMB 12210 were grown in the presence of various concentrations of ATX-101 and/or antibiotic.
as §1, §2, §3

[10] = test system: gram positive bacteria (Enterococcus faecium CCUG 37832, Enterococcus faecium CTC 492, Micrococcus luteus ATCC 9341); assay type: cell-based
Method: as §5, §1, §2, §3

[11] = test system: E. faecium CTC 492; experiment: MIC assay of antibiotics with ATX-101; assay type: cell-based, Enterococcus faecium
Method: as §5, §1, §2, §3
as §1, with “The APIM peptide was” for “ATX-101 was”, “with APIM” for “with ATX-101”
as §2, with “APIM,” for “ATX-101,”, “in” for “is”, “APIM” for “ATX-101”, “as” for “as a”
as §3, with “inoculated” for “inoculated from”, “OD600” for “OD800”, “culture.” for “culture, giving the same dilution of the culture in the assay cultures.”, “yield in each well” for “yield”

[12] = test system: E. coli NCIMB 12210; experiment: MIC assay of antibiotics with ATX-101; assay type: cell-based, Escherichia coli; conditions: FIG. 4
Method: as §5, §1, §2, §3
as §1, with “The APIM peptide was” for “ATX-101 was”, “with APIM” for “with ATX-101”
as §2, with “APIM,” for “ATX-101,”, “in” for “is”, “APIM” for “ATX-101”, “as” for “as a”
as §3, with “inoculated” for “inoculated from”, “OD600” for “OD800”, “culture.” for “culture, giving the same dilution of the culture in the assay cultures.”, “yield in each well” for “yield”

[13] = test system: P. aeruginosa; assay type: cell-based
Method: as §1, §2, §3, §4

[14] = test system: Staphylococcus aureus MRSA 1096; assay type: cell-based
Method: as §1, §2
At the day of analysis, overnight TSB cultures inoculated from freeze stocks (6 ml in 50 ml tube tilted to 45-degrees angle, 200 rpm, 2.5 cm amplitude, 37° C.) were diluted in TSB until the OD800 was 0.10, and further diluted 1:40 in Mueller-Hinton broth. […] The optical density at 600 nm in the microwells was measured after approximately 19 hours of incubation, and the relative growth yield was calculated based on the growth in the reference groups. […] The microplates were further incubated for 6 hours, and optical density in the cultures was measured once more for confirmation of the estimated MIC-values.

[15] = test system: MRSA 1040 (u50) biofilm; experiment: MRSA biofilm under flow (IBIDI flow-system); assay type: cell-based, Staphylococcus aureus
Method: The IBIDI flow-system coupled with EVOS Auto Imaging system was optimized and used for testing the effect of ATX-101 on MRSA biofilm under flow. MRSA 1040 (u50) was used as model organism; it normally produces a dense biofilm in the growth channel during 36 hours of flow. The effect of 3 different concentrations of ATX-101 was tested (7 μg/ml, 3.5 μg/ml and 0.8 μg/ml). The flow system was programmed with share stress similar to those found in capillary networks (3.49 dyne/cm^2), 2% Luria Bertani (LB) was used for dilution and flow medium.

[16] = concentration of APIM peptide 15 μg/ml, MRSA 1040s
[17] = starting concentration of ATX-101 150 μg/ml

## RWLVK (APIM) [SEQ ID NO: 1290]
[1]
  bacterial growth on overexpression of APIM peptide (OD): inhibits bacterial growth

## CC[C@H](C)[C@H](NC(=O)[C@H](CCCCN)NC(=O)[C@H](CCCNC(=N)N)NC(=O)[C@H](CCCCN)NC(=O)[C@H](CCCCN)NC(=O)[C@H](CCCCN)NC(=O)[C@H](Cc1c[nH]c2ccccc12)NC(=O)[C@@H]1CCCN1C(=O)[C@@H](NC(=O)[C@H](CC(C)C)NC(=O)[C@H](Cc1c[nH]c2ccccc12)NC(=O)[C@H](CCCNC(=N)N)NC(=O)[C@H](CC(=O)O)NC(=O)[C@@H](N)CCSC)C(C)C)C(=O)N[C@@H](CCCNC(=N)N)C(=O)N[C@@H](CCCNC(=N)N)C(=O)N[C@@H](CCCNC(=N)N)C(=O)N[C@@H](CCCNC(=N)N)C(=O)N[C@@H](CCCNC(=N)N)C(=O)N[C@@H](CCCNC(=N)N)C(=O)N[C@@H](CCCNC(=N)N)C(=O)N[C@@H](CCCNC(=N)N)C(=O)N[C@@H](CCCNC(=N)N)C(=O)N[C@@H](CCCNC(=N)N)C(=O)N[C@@H](CCCNC(=N)N)C(=O)O [SEQ ID NO: 1303]
[2]
  MIC: 25.3 µM (≈ 91.1 µg/mL)
[3]
  MIC: 25.3 µM (≈ 91.1 µg/mL)
[4]
  MIC: 37.9 µM (≈ 137 µg/mL)
[5]; [16]
  MIC of Erythromycin (Relative values): 100
[6]; CCUG 37832
  MIC: 7.5 µM

## N=C(N)NCCC[C@H](NC(=O)[C@H](CCCNC(=N)N)NC(=O)[C@H](CCCNC(=N)N)NC(=O)[C@H](CCCNC(=N)N)NC(=O)[C@H](CCCNC(=N)N)NC(=O)[C@H](CCCNC(=N)N)NC(=O)[C@H](CCCNC(=N)N)NC(=O)[C@H](CCCNC(=N)N)NC(=O)[C@H](CCCNC(=N)N)NC(=O)[C@H](CCCNC(=N)N)NC(=O)[C@@H](N)CCCNC(=N)N)C(=O)O [R11, RRRRRRRRRRR, reference compound]
[5]; 1040s
  MIC: 118 µg/mL
[7]
  interaction with the β-clamp protein: does not interact with the β-clamp protein

## MDRWSVKWKKKRKIRRRRRRRRRRR [SEQ ID NO: 1298]
[3]
  MIC: 37.9 µM
[4]
  MIC: 37.9 µM
[5]; [16]
  MIC of Erythromycin (Relative values): 100
[6]; CCUG 37832
  MIC: 7.5 µM
[8]
  MIC compared with ATX-101: lower MICs than ATX-101

## RWLVP (APIM variant) [SEQ ID NO: 1292]
[1]
  bacterial growth on overexpression of APIM peptide (OD): particularly effective

## RFSLK (APIM variant) [SEQ ID NO: 1291]
[1]
  bacterial growth on overexpression of APIM peptide (OD): particularly effective

## RWLTK (APIM variant) [SEQ ID NO: 1293]
[1]
  bacterial growth on overexpression of APIM peptide (OD): particularly effective

## MDRWLVKWKKKRKIRRRRRRRRRRR [ATX-101]
[9]
  MIC: 5 to 10 µg/mL
[9]; FIG. 1, gram negative bacteria
  growth inhibited by ATX-101 from (concentration): about 1 μM
[10]
  MIC: about 1 μg/ml
[10]; FIG. 2, gram positive bacteria
  growth inhibited by ATX-101 from (concentration): about 1 μM
[11]; 6.5 μg/ml or 13 μg/ml ATX-101, about 0.5-2 μg/ml novobiocin
  effect on inhibition of bacterial growth by novobiocin: enhances the inhibition of bacterial growth
[11]; 20 μg/ml ATX-101, with or without ampicillin or novobiocin
  growth at higher concentration of ATX-101: no growth was observed
[12]
  reduction of the MIC for novobiocin: 16 fold
[3]
  MIC: 16.8 µM
[13]
  MIC: 37.9 µM
[4]
  MIC: 37.9 µM
[4]; Staphylococcus aureus NCTC 6571
  MIC of ATX-101: 150 µg/mL
[4]; [17]
  Factor of inhibition: 1
[5]; 1040s
  MIC: 7.5 µM
[5]; Table 4, MRSA 1040s
  MIC of ATX-101: 37.5 µg/mL
[5]; Table 5, peptide alone, MRSA 1040s
  MIC: 32 µg/mL
[5]; Table 6, alone, MRSA 1040s
  MIC: 16 µg/mL
[5]; concentration of APIM peptide 7.5 μg/ml, MRSA 1040s
  MIC of Erythromycin (Relative values): 1000
[5]; [16]
  MIC of Erythromycin (Relative values): 125
[5]; [17]
  Factor of inhibition: 0.25
[14]; MRSA 1096
  MIC of ATX-101: 9.375 µg/mL
[14]; [17]
  Factor of inhibition: 0.0625
[6]; ATX-101 alone, text b504
  MIC: 7.5 µg/mL
[6]; Table 9, E. faecium TO-3
  MIC: 7.5 µM
[15]; 0.8 μg/ml ATX-101, 36 hours, FIG. 15
  biofilm formation: biofilm formation is inhibited
[15]; 7 μg/ml ATX-101, 36 hours, FIG. 14
  biofilm formation: biofilm formation is inhibited
[15]; 7 μg/ml, 3.5 μg/ml and 0.8 μg/ml
  effect on MRSA biofilm under flow: Good effect

## MDRWAVKWKKKRKIRRRRRRRRRRR [SEQ ID NO: 1299]
[3]
  MIC: 25.3 µM
[4]
  MIC: 37.9 µM
[5]; [16]
  MIC of Erythromycin (Relative values): 200
[6]; CCUG 37832
  MIC: 7.5 µM
[8]
  MIC compared with ATX-101: lower MICs than ATX-101

From US10570180B2, “Anti-bacterial agents and their use in therapy” (priority 2015, dated 2020)
